Article PMC10269604, “A 4-Hydroxybenzoic Acid-Mediated Signaling System Controls the Physiology and Virulence of Shigella sonnei” (Microbiology Spectrum, 2023)

Experiments:
AaeR (SSON_3385) = settings: AaeR labelled with L014 Monolith protein labeling kit; 60% LED power, 40% MST power
UbiC (SSON_4219) = target: T1, UbiC (SSON_4219) (Shigella sonnei, UniProt Q3YUU5); experiment: in vitro conversion to 4-HBA; type: biochemical; settings: product 4-hydroxybenzoic acid
T1 construct: intact ubiC gene in pET28a(+), His-tagged fusion, expressed in E. coli BL21(DE3), His-Tag column
T1 sequence (Q3YUU5 whole entry, the tested form may be a part): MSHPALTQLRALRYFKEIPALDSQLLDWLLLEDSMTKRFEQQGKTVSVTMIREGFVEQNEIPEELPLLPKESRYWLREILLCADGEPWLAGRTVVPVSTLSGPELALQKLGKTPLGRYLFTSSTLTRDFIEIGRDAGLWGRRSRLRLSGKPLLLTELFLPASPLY

SMILES | Kd (AaeR (SSON_3385)) [µM] | in vitro conversion to 4-HBA (UbiC (SSON_4219))
O=C(O)c1ccc(O)cc1 [4-hydroxybenzoic acid] | 23.1 ± 0.76 | 
C=C(O[C@@H]1C=C(C(=O)O)C=C[C@H]1O)C(=O)O [chorismic acid] |  | UbiC directly catalyzed the conversion of chorismic acid to 4-HBA
